These results are taken from ChEMBL document CHEMBL3526020, “Significance of peptide transporter 1 in the intestinal permeability of valacyclovir in wild-type and PepT1 knockout mice” (Drug Metab Dispos, 2013).

The nature of data set [1]: AUC (0 to 180 mins) in PepT1 knockout mouse treated with 25 nmol/g, po of valacyclovir. The data set is classed as ADME, organism-based. Also on record: time < 3 hr, dose 25 nmol/g, route oral. Conditions: plasma; call rule not given here.
The nature of data set [2]: Chemical stability of the compound. The data set is classed as physicochemical.
Data set [3] can be described thus: Tmax in wild type mouse treated with 25 nmol/g, po of valacyclovir. The format is ADME, organism-based. Conditions: in vivo.
Data set [4] has as its system Plasma. The data set is described as follows: Drug level in mouse portal vein plasma treated with valacyclovir at 100 uM by HPLC analysis. The data set is classed as ADME, cell-free.
Data set [5] can be described thus: Cmax in PepT1 knockout mouse treated with 25 nmol/g, po of valacyclovir. Conditions: in vivo. The format is ADME, organism-based. Also on record: dose 25 nmol/g, route oral.
Data set [6] is described as follows: Tmax in PepT1 knockout mouse treated with 25 nmol/g, po of valacyclovir. The format is ADME, organism-based. Conditions: in vivo.
A short description of data set [7]: Cmax in wild type mouse treated with 25 nmol/g, po of valacyclovir. The data set is classed as ADME, organism-based. Also on record: dose 25 nmol/g, route oral. Conditions: in vivo.
The target of data set [8] is T1, PepT1 (SLC15A1) (Mus musculus, UniProt Q9JIP7).
T1 sequence (Q9JIP7 whole entry): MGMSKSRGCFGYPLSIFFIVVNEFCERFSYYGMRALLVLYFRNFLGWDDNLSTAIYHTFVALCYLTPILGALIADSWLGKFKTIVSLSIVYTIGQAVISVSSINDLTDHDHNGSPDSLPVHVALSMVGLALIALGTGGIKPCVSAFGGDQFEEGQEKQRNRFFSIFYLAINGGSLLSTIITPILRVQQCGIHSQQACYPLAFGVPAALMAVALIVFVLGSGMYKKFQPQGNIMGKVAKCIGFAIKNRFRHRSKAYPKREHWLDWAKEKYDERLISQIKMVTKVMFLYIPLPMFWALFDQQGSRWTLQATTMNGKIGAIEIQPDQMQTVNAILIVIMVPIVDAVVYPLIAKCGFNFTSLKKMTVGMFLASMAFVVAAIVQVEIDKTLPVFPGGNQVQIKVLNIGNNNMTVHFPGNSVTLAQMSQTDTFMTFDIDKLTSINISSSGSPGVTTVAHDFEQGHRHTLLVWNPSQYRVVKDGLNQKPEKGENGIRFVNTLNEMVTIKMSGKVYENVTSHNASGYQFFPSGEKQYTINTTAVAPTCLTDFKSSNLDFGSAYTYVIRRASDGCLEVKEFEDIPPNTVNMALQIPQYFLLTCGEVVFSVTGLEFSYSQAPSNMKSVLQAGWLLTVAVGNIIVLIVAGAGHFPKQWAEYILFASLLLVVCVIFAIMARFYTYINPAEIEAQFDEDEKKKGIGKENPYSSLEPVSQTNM
The data set is described as follows: Effective permeability of the compound assessed as PepT1-mediated drug uptake in wild type mouse jejunum at 100 uM by HPLC analysis. To be noted: read-out: Peff. The format is ADME.

Data set [9] can be described thus: Effective permeability of the compound in PepT1 knockout mouse jejunum at 100 uM by HPLC analysis. The data set is classed as ADME, tissue-based. Conditions: read-out: Peff.
Data set [10] is described as follows: AUC (0 to 180 mins) in wild type mouse treated with 25 nmol/g, po of valacyclovir. The data set is classed as ADME, organism-based. Also on record: time < 3 hr, dose 25 nmol/g, route oral. Conditions: plasma.
A short description of data set [11]: Permeability of the compound in human jejunum. To be noted: read-out: permeability. The format is ADME, tissue-based.
Data set [12] in a line: Permeability in mouse jejunum. The data set is classed as ADME, tissue-based. To be noted: read-out: permeability.
Data set [13] has as its system Ileum. Kind of data set: Effective permeability of the compound in PepT1 knockout mouse ileum at 100 uM by HPLC analysis relative to wild type mouse. The data set is classed as ADME, tissue-based.
Data set [14] has as its system Jejunum. Kind of data set: Drug uptake in wild type mouse jejunum at 100 uM at pH 6.5 by HPLC analysis in presence of PepT1 substrate GlySar. The data set is classed as ADME, tissue-based. To be noted: in vivo, pH 6.5, 100 µM.
Data set [15] can be described thus: Drug uptake in human Caco2 cells. The data set is classed as ADME, cell-based. Conditions: Caco-2 cells.
Data set [16] has as its system Jejunum. Kind of data set: Drug uptake in wild type mouse jejunum at 100 uM at pH 6.5 by HPLC analysis in presence of organic anion substrate PAH. The data set is classed as ADME, tissue-based. Conditions: in vivo, pH 6.5, 100 µM.
Data set [17] relates to Jejunum. The data set is described as follows: Drug uptake in wild type mouse jejunum at 100 uM at pH 6.5 by HPLC analysis in presence of organic cation substrate TEA. To be noted: in vivo, pH 6.5, 100 µM. The format is ADME, tissue-based.
For data set [18], the system named is Jejunum. The data set is described as follows: Drug uptake in wild type mouse jejunum at 100 uM at pH 6.5 by HPLC analysis in presence of PepT1 substrate cefadroxil. The data set is classed as ADME, tissue-based. To be noted: in vivo, pH 6.5, 100 µM.
For data set [19], the system named is Duodenum. The data set is described as follows: Drug degradation in mouse duodenum at 100 uM by chromatographic analysis. The data set is classed as ADME, tissue-based.
In data set [20] the test system is Colon. Kind of data set: Effective permeability of the compound in PepT1 knockout mouse colon at 100 uM by HPLC analysis relative to wild type mouse. The data set is classed as ADME.
Data set [21] addresses T1, PepT1 (SLC15A1). The data set is described as follows: Effective permeability of the compound assessed as PepT1-mediated drug uptake in wild type mouse ileum at 100 uM by HPLC analysis. The data set is classed as ADME, tissue-based. Conditions: read-out: Peff.
Data set [22] has as its system Plasma. The data set is described as follows: Prodrug activation in mouse portal vein plasma assessed as formation of acyclovir at 100 uM by HPLC analysis. The format is cell-free.
The test system of data set [23] is Duodenum. Kind of data set: Effective permeability of the compound in PepT1 knockout mouse duodenum at 100 uM by HPLC analysis relative to wild type mouse. The format is ADME.
For data set [24], the target named is T1, PepT1 (SLC15A1). The data set is described as follows: Effective permeability of the compound assessed as PepT1-mediated drug uptake in wild type mouse duodenum at 100 uM by HPLC analysis. The data set is classed as ADME. To be noted: read-out: Peff.
A short description of data set [25]: Drug uptake in rat jejunum. The format is ADME, tissue-based.
The test system of data set [26] is Ileum. Kind of data set: Drug degradation in mouse ileum at 100 uM by chromatographic analysis. The format is ADME, tissue-based.
Data set [27] concerns Colon. The data set is described as follows: Drug degradation in mouse colon at 100 uM by chromatographic analysis. The data set is classed as ADME, tissue-based.
Data set [28] deals with Jejunum. Kind of data set: Drug uptake in wild type mouse jejunum at 100 uM at pH 6.5 by HPLC analysis in presence of ATB0,+ substrate L-valine. To be noted: in vivo, pH 6.5, 100 µM. The data set is classed as ADME, tissue-based.
The target of data set [29] is T1, PepT1 (SLC15A1). Kind of data set: Effective permeability of the compound assessed as PepT1-mediated drug uptake in wild type mouse colon at 100 uM by HPLC analysis. The format is ADME. Conditions: not told, read-out: Peff.
Data set [30] deals with Jejunum. Kind of data set: Drug degradation in mouse jejunum at 100 uM by chromatographic analysis. The data set is classed as ADME, tissue-based.
Data set [31] is described as follows: (§1) Drug uptake in wild type mouse jejunum at 0.01 to 50 mM by nonlinear Michaelis-Menten equation analysis. The data set is classed as ADME, tissue-based. Conditions: mouse, jejunum.
For data set [32], the target named is Jejunum. The description is as §1. The data set is classed as ADME, tissue-based.
Data set [33] has as its system Jejunum. The data set is described as follows: Drug uptake in wild type mouse jejunum at 100 uM at pH 6.5 by HPLC analysis in presence of PhT1/2 substrate L-histidine. To be noted: in vivo, pH 6.5, 100 µM. The format is ADME, tissue-based.
The test system of data set [34] is Jejunum. Kind of data set: Effective permeability of the compound in PepT1 knockout mouse jejunum at 100 uM by HPLC analysis relative to wild type mouse. The format is ADME, tissue-based.
Substrate in data set [35]: CC(C)[C@H](N)C(=O)OCCOCn1cnc2c(=O)[nH]c(N)nc21
The data set is described as follows: Permeability of the compound assessed as human PepT1-mediated drug uptake in MDCK cells. The data set is classed as ADME, cell-based.

Substrate in data set [36]: CC(C)[C@H](N)C(=O)OCCOCn1cnc2c(=O)[nH]c(N)nc21
Kind of data set: Permeability of the compound assessed as human PepT1-mediated drug uptake in CHO cells at pH 5.5. The format is ADME, cell-based.

Substrate in data set [37]: CC(C)[C@H](N)C(=O)OCCOCn1cnc2c(=O)[nH]c(N)nc21
The data set is described as follows: Permeability of the compound assessed as human PepT1-mediated drug uptake in Xenopus oocytes. The format is ADME, cell-based.

Substrate in data set [38]: CC(C)[C@H](N)C(=O)OCCOCn1cnc2c(=O)[nH]c(N)nc21
The data set is described as follows: Permeability of the compound assessed as human PepT1-mediated drug uptake in CHO cells at pH 7.9. The format is ADME, cell-based.

Turning to `Nc1nc2c(ncn2COCCO)c(=O)[nH]1` [ACYCLOVIR], the figures for the AUC(0-t) at 3 h in [1] and in [10] were 5.02 µM·h and 12.3 µM·h, respectively. In [2], this molecule displayed a Stability of less than 5%. For the same molecule, the Tmax was 25 min in [3] and 70 min in [6]. The Drug metabolism entry in data set [4] is “metabolite_detected”. In addition, the Cmax in [5] was 2 µM; in [7], 9.3 µM. The Papp at 100 µM came out at 4 ×10⁻⁶ cm/s in data set [8] and 7.4 ×10⁻⁶ cm/s in data set [9].
Turning to `COCCc1ccc(OCC(O)CNC(C)C)cc1` (stereo not drawn) [METOPROLOL], the Papp in data set [11] is 134 ×10⁻⁶ cm/s; in [12], 50 ×10⁻⁶ cm/s.
With `CC(C)[C@H](N)C(=O)OCCOCn1cnc2c(=O)nc(N)[nH]c21.Cl` [VALACYCLOVIR HYDROCHLORIDE], the Peff in [13], in data set [20], in data set [23] and in data set [34] was less than 10% each time. Also, the Drug uptake result in [14] was “Not Active”; in data set [16] it was “Active”; in data set [17] it was “Active”; in [18] it was “Not Active”; in data set [28], “Active”; in [32] (mouse, in vivo, 50000 µM), 82%. For the same molecule, the Drug uptake result in data set [33] was “Active”. Also, the Km worked out at 1.6 mM in data set [15] and 1.2 mM in data set [25]. The Papp in [11] amounted to 166 ×10⁻⁶ cm/s. Moreover, the Stability is less than 5% in data set [2]; “Unstable” in [19]; “Unstable” in [26]; “Unstable” in [27]; “Unstable” in data set [30]. Besides, the Papp at 100 µM in [21] turned out to be 210 ×10⁻⁶ cm/s; in data set [24], 240 ×10⁻⁶ cm/s; in data set [29] it was 27 ×10⁻⁶ cm/s; in [8] it was 170 ×10⁻⁶ cm/s. Further, the Drug metabolism result in [22] was “metabolite_detected”. The Km at up to 50000 µM in [31] came out at 10.2 mM. Moreover, the Kd in data set [32] is recorded as 3 ×10⁻⁵ cm/s. Besides, the Vmax in data set [32] (mouse, in vivo, 50000 µM) was 1.4 nmol/cm2/s.

B1: Solute carrier family 15 member 1 (Homo sapiens) (protein)
chain: MGMSKSHSFFGYPLSIFFIVVNEFCERFSYYGMRAILILYFTNFISWDDNLSTAIYHTFVALCYLTPILGALIADSWLGKFKTIVSLSIVYTIGQAVTSVSSINDLTDHNHDGTPDSLPVHVVLSLIGLALIALGTGGIKPCVSAFGGDQFEEGQEKQRNRFFSIFYLAINAGSLLSTIITPMLRVQQCGIHSKQACYPLAFGVPAALMAVALIVFVLGSGMYKKFKPQGNIMGKVAKCIGFAIKNRFRHRSKAFPKREHWLDWAKEKYDERLISQIKMVTRVMFLYIPLPMFWALFDQQGSRWTLQATTMSGKIGALEIQPDQMQTVNAILIVIMVPIFDAVLYPLIAKCGFNFTSLKKMAVGMVLASMAFVVAAIVQVEIDKTLPVFPKGNEVQIKVLNIGNNTMNISLPGEMVTLGPMSQTNAFMTFDVNKLTRINISSPGSPVTAVTDDFKQGQRHTLLVWAPNHYQVVKDGLNQKPEKGENGIRFVNTFNELITITMSGKVYANISSYNASTYQFFPSGIKGFTISSTEIPPQCQPNFNTFYLEFGSAYTYIVQRKNDSCPEVKVFEDISANTVNMALQIPQYFLLTCGEVVFSVTGLEFSYSQAPSNMKSVLQAGWLLTVAVGNIIVLIVAGAGQFSKQWAEYILFAALLLVVCVIFAIMARFYTYINPAEIEAQFDEDEKKNRLEKSNPYFMSGANSQKQM
For the molecule B1, the Michaelis constant (Km) in data set [35] was 3.8 mM; in [36], 7.4 mM; in [37] it was 5.9 mM; in data set [38], 2.2 mM.
